{"source": "patent US9549935B2", "about": "“Methods and compositions for treating migraines using noribogaine” (DemeRx, Inc., priority 2014, dated 2017)", "key": {"[1]": {"assay": "Plasma noribogaine pharmacokinetics after ascending single oral doses in healthy volunteers", "format": "in vivo, human", "conditions": "for mean AUC/24 hr / mean AUC/24: fasting, serum; for CL/F: fasted healthy volunteers, mean (SD), n = 6", "from_the_text": "Thirty-six healthy, drug-free male volunteers, aged between 18-55 years, were enrolled in and completed the study. This was an ascending single-dose, placebo-controlled, randomized double blind, parallel group study. Mean (SD) age was 22.0 (3.3) years, mean (SD) height was 1.82 (0.08) m, and mean (SD) weight was 78.0 (9.2) kg. Twenty-six subjects were Caucasian, 3 were Asian, 1 Maori, 1 Pacific Islander, and 5 Other. The protocol for this study was approved by the Lower South Regional Ethics Committee (LRS/12/06/015), and the study was registered with the Australian New Zealand Clinical Trial Registry (ACTRN12612000821897). All subjects provided signed informed consent prior to enrolment, and were assessed as suitable to participate based on review of medical history, physical examination, safety laboratory tests, vital signs and ECG.\nWithin each dose level, 6 participants were randomized to receive noribogaine and 3 to receive placebo, based on a computer-generated random code. Dosing began with the lowest noribogaine dose, and subsequent cohorts received the next highest dose after the safety, tolerability, and blinded pharmacokinetics of the completed cohort were reviewed and dose-escalation approved by an independent Data Safety Monitoring Board. Blinded study drug was administered as a capsule with 240 ml of water after an overnight fast of at least 10 hours. […] Participants were confined to the study site from 12 hours prior to drug administration, until 72 hours post-dose, and there were subsequent outpatient assessments until 216 hours post-dose.\nBlood was obtained for pharmacokinetic assessments pre-dose and then at 0.25, 0.5, 0.75, 1.0, 1.25, 1.5, 2, 2.5, 3, 3.5, 4, 4.5, 5, 5.5, 6, 7, 8, 10, 12, 14, 18, 24, 30, 36, 48, 60, 72, 96, 120, 168 and 216 hours post-dose. Samples were centrifuged and plasma stored at −70° C. until analyzed. Block 24 hour urine collections were obtained following study drug administration for the 30 and 60 mg cohorts. Aliquots were frozen at −20° C. until analyzed.\nPlasma noribogaine concentrations were determined in the 3 mg and 10 mg dose groups using a validated, sensitive LCMSMS method. Sample preparation involved double extraction of basified plasma samples with tert-butyl methyl ether, drying the samples under a stream of nitrogen and reconstitution of sample with acetonitrile:B.P. water (5:95, v/v) containing 0.1% (v/v) formic acid. The compounds were separated by a 150×2.0 mm Luna 5 μm C18 column and detected with a triple-quadrupole API 4000 or 5000 mass spectrometer using electrospray ionization in positive mode and multiple reaction monitoring. Noribogaine-d4 was used as the internal standard. The precursor-product ion transition values for noribogaine were m/z 297.6→122.3, and for the internal standard noribogaine-d4 m/z 301.1→122.2. Analyst® software was used for data acquisition and processing. The ratio of the peak area of noribogaine to the internal standard noribogaine-d4 was used for calibration and measurement of the unknown concentration of noribogaine. The lower limit of quantification (LLOQ) was 0.025 ng/ml noribogaine. The calibration curve was between 0.025 and 25.600 ng/ml noribogaine. Mobile phase A was acetonitrile:B.P. water (5:95, v/v) containing 0.1% (v/v) formic acid, and mobile phase B was acetonitrile:B.P. water (95:5, v/v) containing 0.1% (v/v) formic acid. Total run time was 6 minutes. Binary flow: Initial concentration was 8% mobile phase B; hold at 8% mobile phase B for 0.5 minutes and linear rise to 90% mobile phase B over 1.5 minutes; hold at 90% mobile phase B for 1 minute and then drop back to 8% mobile phase B over 0.01 minute. Equilibrate system for 3 minutes. Total run time was 6 minutes. Within- and between-day assay precision was <9%, and within- and between-day assay accuracy was <9%.\nPlasma noribogaine concentrations were determined in the 30 mg and 60 mg dose groups using a validated, sensitive LCMSMS method. […]"}, "[2]": {"assay": "Cold pressor test (analgesic effect) in healthy volunteers", "format": "in vivo, human", "conditions": "3-60 mg single oral doses vs placebo, 1° C. water", "protocol": "Analgesic effect was assessed based on duration of hand immersion in ice water and on visual analog scale (VAS) pain scores upon hand removal from the water bath.\nSafety and tolerability of noribogaine were tested in the group of volunteers from Example 1. Cold pressor testing was conducted in 1° C. water according to the method of Mitchell et al. (J Pain 5:233-237, 2004) pre-dose, 6, 24, 48, 72 and 216 hours post-dosing. Safety evaluations included clinical monitoring, recording of adverse events (AEs), safety laboratory tests, vital signs, ECG telemetry from −2 h to 6 h after dosing, and 12-lead electrocardiograms (ECGs) up to 216 hours post-dosing."}, "[3]": {"assay": "Time to resumption of opioid substitution treatment (OST) in opioid-dependent patients", "format": "in vivo, human"}, "[4]": {"assay": "Serum noribogaine pharmacokinetics in opioid-dependent patients (Phase IB)", "conditions": "60, 120, 180 mg cohorts"}}}
{"smiles": "CC[C@H]1CC2C[C@H]3c4[nH]c5ccc(O)cc5c4CCN(C2)C13", "note": "[Noribogaine, noribogaine]", "values": [{"measurement": "Dose-proportionality of Cmax and AUC", "setting": "[1]; 3-60 mg single oral doses, healthy volunteers", "result": "increased linearly with dose"}, {"measurement": "time of peak concentrations after oral dosing", "setting": "[1]; across 3-60 mg dose groups, healthy volunteers", "result": "2 to 3", "unit": "h"}, {"measurement": "Mean half-life estimates", "setting": "[1]; across dose groups (3-60 mg), healthy volunteers", "result": "28 to 50", "unit": "h"}, {"measurement": "mean AUC/24 hr", "setting": "[1]; single dose of 3 mg free base", "result": 3.1, "unit": "ng/mL"}, {"measurement": "mean AUC/24 hr", "setting": "[1]; single dose of 10 mg free base", "result": 10.6, "unit": "ng/mL"}, {"measurement": "mean AUC/24", "setting": "[1]; single dose of 30 mg free base", "result": 29.2, "unit": "ng/mL"}, {"measurement": "mean AUC/24", "setting": "[1]; single dose of 60 mg free base", "result": 61, "unit": "ng/mL"}, {"measurement": "CL/F", "setting": "[1]; single oral 3 mg dose", "result": "41.4 (7.0) L/h"}, {"measurement": "CL/F", "setting": "[1]; single oral 10 mg dose", "result": "42.3 (12.0) L/h"}, {"measurement": "CL/F", "setting": "[1]; single oral 30 mg dose", "result": "46.9 (16.4) L/h"}, {"measurement": "CL/F", "setting": "[1]; single oral 60 mg dose", "result": "34.0 (11.4) L/h"}, {"measurement": "analgesic effect in the cold pressor test (duration of hand immersion, VAS pain scores)", "setting": "[2]", "result": "no analgesic effect"}, {"measurement": "average time to resumption of opioids (OST)", "setting": "[3]; single 120 mg dose", "result": "greater than 20 hours"}, {"measurement": "average time to resumption of opioids (OST)", "setting": "[3]; single 180 mg dose", "result": "still longer than untreated patients (7 hours, not shown) or those administered 60 mg noribogaine"}, {"measurement": "dose dependence of maximum serum concentration (Cmax)", "setting": "[4]", "result": "increased in a dose-dependent manner"}]}
